From ChEMBL document CHEMBL1130770, “Solid phase synthesis of benzylamine-derived sulfonamide library” (Bioorg Med Chem Lett, 1998) come the findings set out here.

Each structure is given as a SMILES string.

For the test, the target named is Prothrombin (Homo sapiens, UniProt P00734). Put plainly: Inhibition constant was evaluated for inhibitory activity against the blood coagulant thrombin.

What is called Ki is a dissociation constant, usually derived from enzyme kinetics or from competition with a known ligand. Lower therefore signals higher affinity. The compound `CN(C)C(=O)[C@H](Cc1ccc(CN)cc1)NS(=O)(=O)c1ccc2ccccc2c1` gave an inhibitory constant (Ki) of 3060 nM.
Consider `CC(C)N(C)C(=O)[C@H](Cc1ccc(CN)cc1)NS(=O)(=O)c1ccc2ccccc2c1`, for which the affinity corresponds to a Ki of 600 nM.
Under `NCc1ccc(C[C@H](NS(=O)(=O)c2ccc3ccccc3c2)C(=O)N2CCCC2)cc1` stands 200 nM; under `CC(C)NC(=O)[C@H](Cc1ccc(CN)cc1)NS(=O)(=O)c1ccc2ccccc2c1`, 31700 nM.
Take `CN(C(=O)[C@H](Cc1ccc(CN)cc1)NS(=O)(=O)c1ccc2ccccc2c1)C1CCCC1`: the Ki is 50 nM.
Next, `NCc1ccc(C[C@H](NS(=O)(=O)c2ccc3ccccc3c2)C(=O)NCc2ccccc2)cc1`: 97200 nM; `NCc1ccc(C[C@H](NS(=O)(=O)c2ccc3ccccc3c2)C(=O)N2CCC(O)CC2)cc1`: 15600 nM.
For the compound `CCCc1ccc(S(=O)(=O)N[C@@H](Cc2ccc(CN)cc2)C(=O)N(C)C2CCCC2)cc1`, the inhibition constant (Ki) was 10 nM. Against the preceding compound, the Ki is about 1600-fold lower.
